In experiment [1] the test system is rat hind foot kaolin-induced oedema. Put plainly: Kaolin-induced arthritis test, first experiment (decrease in inflammation, foot volume). The settings on record: 1 h before kaolin, Table IX, read-out: percentage decrease in the inflammation; for change in vivo at 25 mg/kg: 25 mg/kg oral; for change in vivo at 50 mg/kg: 50 mg/kg oral; for change in vivo at 100 mg/kg: 100 mg/kg oral. Format: in vivo. As to the method:
The […] of 0.05 ml of a sterile 10% strength suspension of kaolin into the metatarsal flexor sheath of the hind foot of a rat initially induces an oedematous reaction. An inflammatory arthritis then forms.
The early oedematous reaction appears from the first hour, and reaches its maximum between the fourth hour and the sixth hour. This is the manifestation of interest. The assessment of the volume of the foot enables the action of substances on the oedematous reaction to be studied. The measurements are carried out using a Giono and Chevilard plethysmometer.
The test products are administered orally (stomach tube) one hour before the injection of the kaolin.
The results are expressed as a percentage decrease in the inflammation in the treated animals compared with a control series of animals.
The batches are of 10 animals per dose and 10 control animals.
The figures shown represent the mean of 10 animals.

Experiment [2] has as its system rat hind foot carragheenin-induced oedema. Put plainly: Carragheenin-induced oedema test. The experiment is classed as in vivo. The settings on record: 3 h, first experiment, Table X, read-out: percentage inhibition of the inflammation; for change in vivo at 25 mg/kg: 25 mg/kg oral; for change in vivo at 50 mg/kg: 50 mg/kg oral; for change in vivo at 100 mg/kg: 100 mg/kg oral. The procedure: In this test, 10 rats are used per test compound of the invention. Control batches of 10 rats also receive either the comparative compound (ketoprofen) or exclusively an NaCl solution.
The compounds of the invention are administered orally (stomach tube) one hour before the injection of carragheenin.
The carragheenin is suspended at a concentration of 1% in a 0.9% isotonic sodium chloride solution. The volume injected into the rat's foot is 0.20 ml.
The volume of the foot is measured before the injection and 3 hours later. The antagonistic effect of the products towards carragheenin is reflected in the inhibition of the volume of the oedema compared with control rats. The latter receive only isotonic NaCl solution under identical conditions.

Experiment [3] deals with pain threshold of brewer's yeast inflamed rat hind foot. Put plainly: Randall and Sellitto's test (analgesic activity). Format: in vivo. The conditions noted are these: first experiment, Table XII, read-out: percentage increase in the mean pain threshold; for change in vivo at 25 mg/kg: 25 mg/kg oral; for change in vivo at 50 mg/kg: 50 mg/kg oral; for change in vivo at 100 mg/kg: 100 mg/kg oral. The procedure: Inflammation increases the sensitivity to pain, in particular to pressure, and analgesics raise the threshold of the sensitivity.
The inflammation is obtained by injecting 0.1 ml of a 20% strength aqueous suspension of brewer's yeast under the plantar aponeurosis of one of the hind feet. […] The pain threshold is assessed in terms of the force necessary and sufficient to initiate a characteristic reaction of withdrawing the foot.
The sensitivity to pain of the inflamed foot reaches a plateau 4 hours after the injection of the brewer's yeast, and then remains stable until the 6th hour. The pain threshold of the inflamed foot in control rats weighing 140 g is reached for pressures of 50 to 60 g, whereas it is around 160 g for the intact foot.
The action of the substance administered orally to series of 10 rats is expressed in terms of the percentage increase in the mean pain threshold, compared with that measured in the rats of a control series of 10 animals which have not received a compound of the invention.
The test products are administered orally (stomach tube) one hour before the injection of brewer's yeast.
The comparative compound used is ketoprofen.

Experiment [4] concerns biosynthesis of leukotrienes B4 (LTB4), human polymorphonuclear leukocytes. The experiment can be described thus: Biosynthesis of LTB4, isomers and oxidized metabolites in human polymorphonuclear leukocytes. The experiment is classed as cell-based. The settings on record: Leukocyte. The procedure:
Polymorphonuclear leukocytes are isolated from human blood and used during the 6 hours following the withdrawal. The viability of the cells is checked by trypan blue exclusion.
5×10^6 cells are incubated for 10 minutes at 37° C. in the presence of the test product dissolved in DMSO, and are stimulated with ionophore A 23187 (Galbiochem, 10 μM) in PBS buffer at pH 7.4, Ca^2+ and Mg^2+ =1 μM.
100 ng of prostaglandin B2 (PGB2), dissolved in methanol, are added at the end of the reaction to act as an internal standard.
On centrifugation, the culture supernatant is withdrawn. The latter is retrieved under argon and stored at -80° C. until analysed by HPLC.
This analysis is carried out by injecting 250 μl onto a 5 μm ODS ultrasphere column (Beckmann), with a gradient of acetonitrile (20-80%) in water, at pH 7.4.
The amounts of the different products which absorb at 269 nm, i.e. leukotrienes B4 (LTB4), isomers of LTB4 and oxidized metabolites of LTB4, are estimated by comparison with the internal standard.
The test product is used at a concentration of 40 μM.
They are expressed either as a percentage inhibition, or as a percentage increase in the production of LTB4, isomers of LTB4 and oxidized metabolites of LTB4 (designated by +).
The experimental model is the same as that described in Section 2.1. Other products are tested by comparison with the compound of the invention no. 1574, used as a control.

Setting [5] is: first experiment, read-out: Isomers of LTB4: percentage inhibition (+ : percentage increase in the production).
Setting [6] is: first experiment, read-out: LTB4: percentage inhibition (+ : percentage increase in the production).
The mark [7] stands for this setting: first experiment, read-out: Oxidized metabolites of LTB4: percentage inhibition (+ : percentage increase in the production).
[8] abbreviates: second experiment, read-out: Percentage inhibition of LTB4 formation.

The results in this text go back to patent US4980349A, “Sulphonamides derived from diarylmethanes, the processes for preparing them and pharmaceutical compositions containing them” (SANOFI, priority 1986, dated 1990).

Where two headings read alike, the source gives them in different places.

Turning to `O=C(c1ccccc1)c1ccccc1S(=O)(=O)NCCCN1CCOCC1` [Compound 1340], in experiment [1], the change in vivo at 25 mg/kg was -10%, the change in vivo at 50 mg/kg was -25% and the change in vivo at 100 mg/kg is -45%. For the same molecule, in experiment [2], the change in vivo at 25 mg/kg was -5%, the change in vivo at 50 mg/kg was -5% and the change in vivo at 100 mg/kg is -10%. Also, in experiment [3], the change in vivo at 25 mg/kg was found to be 10%, the change in vivo at 50 mg/kg stood at 20% and the change in vivo at 100 mg/kg turned out to be 49%.
For the molecule `O=C(c1ccccc1)c1cc(Cl)ccc1S(=O)(=O)NCCN1CCOCC1` [Compound 1343], in experiment [2], the change in vivo at 25 mg/kg is -7%, the change in vivo at 50 mg/kg was -8% and the change in vivo at 100 mg/kg is -8%. In experiment [3], the change in vivo at 25 mg/kg turned out to be 10%, the change in vivo at 50 mg/kg turned out to be 12% and the change in vivo at 100 mg/kg worked out at 12%.
For the molecule `O=C(c1ccccc1)c1cc(Cl)ccc1S(=O)(=O)NCCCN1CCOCC1` [Compound 1344, 2-benzoyl-4-chloro-N-(3-morpholinopropyl)benzenesulphonamide], in experiment [1], the change in vivo at 25 mg/kg was -10%, the change in vivo at 50 mg/kg was -15% and the change in vivo at 100 mg/kg was -18%. For the same molecule, in experiment [3], the change in vivo at 25 mg/kg is 18%, the change in vivo at 50 mg/kg was 18% and the change in vivo at 100 mg/kg came to 25%.
On to `O=C(O)CNS(=O)(=O)c1ccc(Cl)cc1C(=O)c1ccccc1` [Compound 1565], for which, in experiment [1], the change in vivo at 25 mg/kg was -15%, the change in vivo at 50 mg/kg was -20% and the change in vivo at 100 mg/kg was -45%. Further, in experiment [2], the change in vivo at 25 mg/kg is -18%, the change in vivo at 50 mg/kg was -22% and the change in vivo at 100 mg/kg was -49%. Also, in experiment [3], the change in vivo at 25 mg/kg came out at 18%, the change in vivo at 50 mg/kg came to 28% and the change in vivo at 100 mg/kg is 42%.
For the molecule `O=C(O)CCCNS(=O)(=O)c1ccc(Cl)cc1C(=O)c1ccccc1` [Compound 1567], the figures for the change in vivo at 25 mg/kg in experiment [1], in experiment [2] and in experiment [3] were -12%, -8% and 12%, respectively. In addition, the change in vivo at 50 mg/kg in experiment [1] is -15%; in experiment [2], -10%; in experiment [3], 15%. The change in vivo at 100 mg/kg in experiment [1] is -20%; in experiment [2], -10%; in experiment [3] it was 20%.
On to `O=C(O)CCCCCNS(=O)(=O)c1ccc([N+](=O)[O-])cc1C(=O)c1ccccc1` [Compound 1568], for which, in experiment [1], the change in vivo at 25 mg/kg is -15%, the change in vivo at 50 mg/kg is -18% and the change in vivo at 100 mg/kg was -40%. Also, in experiment [2], the change in vivo at 25 mg/kg was -15%, the change in vivo at 50 mg/kg was -20% and the change in vivo at 100 mg/kg is -35%. For the same molecule, in experiment [3], the change in vivo at 25 mg/kg came to 18%, the change in vivo at 50 mg/kg was determined as 25% and the change in vivo at 100 mg/kg worked out at 48%.
Regarding `O=C(O)CCCCCNS(=O)(=O)c1ccc(Cl)cc1C(=O)c1ccccc1` [Compound 1569], in experiment [1], the change in vivo at 25 mg/kg is -28%, the change in vivo at 50 mg/kg was -30% and the change in vivo at 100 mg/kg was -45%. In experiment [2], the change in vivo at 25 mg/kg is -30%, the change in vivo at 50 mg/kg is -35% and the change in vivo at 100 mg/kg is -50%. For the same molecule, in experiment [3], the change in vivo at 25 mg/kg is 10%, the change in vivo at 50 mg/kg was determined as 15% and the change in vivo at 100 mg/kg worked out at 25%.
`O=C(O)CCCCCCCCCCNS(=O)(=O)c1ccc([N+](=O)[O-])cc1C(=O)c1ccccc1` [Compound 1571]: the change in vivo at 25 mg/kg is -17% in experiment [1], -23% in experiment [2] and 25% in experiment [3]. For the same molecule, the figures for the change in vivo at 50 mg/kg in experiment [1], in experiment [2] and in experiment [3] were -26%, -27% and 32%, respectively. The change in vivo at 100 mg/kg in experiment [1] is -50%; in experiment [2], -48%; in experiment [3], 36%. Besides, the inhibition at 40 µM in experiment [4] (setting [5]) came to 53%; in experiment [4] (setting [6]), 60%; in experiment [4] (setting [7]), 70%.
On to `O=C(O)CNS(=O)(=O)c1ccc(Cl)cc1C(=O)c1ccccc1Cl` [Compound 1575], for which, in experiment [1], the change in vivo at 25 mg/kg was -18%, the change in vivo at 50 mg/kg was -21% and the change in vivo at 100 mg/kg was -37%. Also, in experiment [2], the change in vivo at 25 mg/kg was -15%, the change in vivo at 50 mg/kg was -18% and the change in vivo at 100 mg/kg is -35%. In addition, in experiment [3], the change in vivo at 25 mg/kg was 15%, the change in vivo at 50 mg/kg came to 19% and the change in vivo at 100 mg/kg is 35%.
For `O=C(O)CCCCCCCCCCNS(=O)(=O)c1ccccc1C(=O)c1ccccc1` [Compound 1682], the change in vivo at 25 mg/kg was -35% in experiment [1], -33% in experiment [2] and 12% in experiment [3]. The change in vivo at 50 mg/kg in experiment [1] is -35%; in experiment [2] it was -42%; in experiment [3] it was 15%. For the same molecule, the change in vivo at 100 mg/kg in experiment [1] is -40%; in experiment [2], -45%; in experiment [3] it was 20%. For the same molecule, the inhibition at 40 µM in experiment [4] (setting [5]) worked out at 30%; in experiment [4] (setting [6]) it was 30%; in experiment [4] (setting [7]) it was 40%.
In the case of `O=C(O)CCCCCCCCCCCNS(=O)(=O)c1cccc(C(=O)c2ccccc2)c1` [Compound 1685], the inhibition at 40 µM amounted to 70% in experiment [4] (setting [5]), 50% in experiment [4] (setting [6]) and 70% in experiment [4] (setting [7]).
In the case of `O=C(O)CCCCCCCCCCCNS(=O)(=O)c1cccc(C(=O)c2cc(S(=O)(=O)NCCCCCCCCCCCC(=O)O)ccc2Cl)c1` [Compound 1689], the inhibition at 40 µM in experiment [4] (setting [5]) is -30%; in experiment [4] (setting [6]), -30%; in experiment [4] (setting [7]) it was 20%.
As to `O=C(O)CCCCCCCCCCNS(=O)(=O)c1ccc(Cl)c(C(=O)c2ccccc2)c1` [Compound 1737, 11-(3-benzoyl-4-chlorobenzenesulphonamido)undecanoic acid], in experiment [4] (setting [8]), the inhibition at 40 µM is 95%.
Consider `O=C(O)CCCNS(=O)(=O)c1ccc(C(=O)c2cccs2)cc1` [Compound 1738, 4-[4-(2-thenoyl)benzenesulphonamido]butyric acid], for which, in experiment [4] (setting [8]), the inhibition at 40 µM came out at 20%.
Still for that read-out and setting: as for `O=C(O)CCCCCCCNS(=O)(=O)c1ccc(Cl)cc1C(=O)c1ccccc1Cl` [Compound 1743], the figure is 20%.

What is called inhibition is the drop in the measured response relative to a control, in per cent.
